From patent US9456992B2 (XSPRAY MICROPARTICLES AB, priority 2012, dated 2016) come the findings set out here.

Data set [1] is described as follows: Dissolution rate measurement in sink conditions, flow through cell system, FaSSIF, 37° C. It counts as physicochemical. Particulars: initial slope of accumulated % solubilized vs time, 0 to 10 minutes; sink condition in FaSSIF, 37° C. On the procedure: Typically, said dissolution rate is measured by a flow through cell system in sink conditions, e.g., according to the US Pharmacopea (USP4). Dissolution measurement in sink conditions of hybrid nanoparticles may be measured in a method consisting of adding the wished amount of powder into a flow through cell system (SOTAX, Allschwill, Switzerland), mounting the cell onto its apparatus and then pumping the appropriate medium (typically FaSSIF, FeSSIF, SGF) through the powder. The temperature of the apparatus is typically set to 37° C. The amount of powder added into the cell depends on drug load of the powder: The exact amount of powder can be calculated from results obtained from drug load analysis of the powders. The PKI may be added into the flow through cell and a flow rate between 5 and 25 ml medium/min is pumped through the powder. […] Samples are typically taken after 0, 0.5, 1, 1.5, 2, 3, 4, 5, 6, 7, 8, 9, 10, 15, 20, 25, 30, 35 and 40 min from the moment the medium comes out from the flow through cell. The accumulated % solubilized of the amount of active substance added into the flow through cell can be calculated and plotted against time (min). The initial slope (“initial dissolution rate”, representing 0-10 minutes) of the graph may be estimated and taken as the dissolution rate of the material in sink condition at 37° C. in the given dissolution medium.
Typically, said dissolution rate is measured by a flow through cell system, for instance in sink conditions. […] The temperature of the apparatus is typically set to 37° C. The amount of powder added into the cell depends on drug load of the powder: The exact amount of powder can be calculated from results obtained from drug load analysis of the powders. The PKI may be added into the flow through cell and a flow rate between 5 and 25 ml medium/min is pumped through the powder. […] Samples are typically taken after 0, 0.5, 1, 1.5, 2, 3, 4, 5, 6, 7, 8, 9, 10, 15, 20, 25, 30, 35 and 40 min from the moment the medium comes out from the flow through cell. The accumulated % solubilized of the amount of active substance added into the flow through cell, can be calculated and plotted against time (min). The initial slope (“initial dissolution rate”, representing 0-10 minutes) of the graph can be estimated and taken as the dissolution rate of the material in sink condition at 37° C. in the given dissolution medium.
Dissolution measurement in sink conditions of compositions of the invention were measured in a method consisting of adding the wished amount of powder into a flow through cell system (SOTAX, Allschwill, Switzerland), mounting the cell onto its apparatus and then pumping the appropriate medium (typically FaSSIF, FeSSIF, SGF) through the powder. The temperature of the apparatus was set to 37° C. The amount of powder added into the cell depends on drug load of the powder: The exact amount of powder was calculated from results obtained from drug load analysis of the powders.
Typically, 3.5 to 7 mg PKI was added into the flow through cell and a flow rate between 8 and 16 ml medium/min (preferably about 8 ml medium/min) was pumped through the powder. One ml samples of the medium passing through the cell were collected at predetermined times. […] Samples were taken after 0, 0.5, 1, 1.5, 2, 3, 4, 5, 6, 7, 8, 9, 10, 15, 20, 25, 30, 35 and 40 min from the moment the medium comes out from the flow through cell. The accumulated % solubilized of the amount of active substance added into the flow through cell was calculated and plotted against time (min). The initial slope (“initial dissolution rate”) of the graph was estimated, as measured during 0 to 10 minutes, and taken as the dissolution rate of the material in sink condition at 37° C. in the given dissolution medium.

The nature of data set [2]: Dissolution measurement assay (apparent solubility, non-sink) in FaSSIF solution (pH 6.5). Particulars: for AUC/ 80 min. Mg/min/L: Area Under the Curve during 80 minutes dissolution in FaSSIF solution (pH 6.5). On the procedure:
The medium was prepared in accordance with the manufacturer's instructions. The amount of powder added depends on the wished “total PKI concentration”. […] For other experiments, the drug load was first estimated by HPLC and the amount of powder to obtain the drug concentration was calculated.
Typically, the powder was added in a 8 mL glass bottle and 7 mL of solution was added (typically FaSSIF, FeSSIF or SGF). The glass bottle was put on a shaker (approximately 1 rotation per minute) for dissolution. Samples of 500 μl where taken after different times, and subsequently centrifuged at approximately 15000 g for 3 minutes. The resulting supernatant was then analyzed by HPLC (C18 column Eclipse, 4.6 mm×15 cm, 1 mL/min, detection at […]. Generally samples were taken after 5, 30 and 90 min and eventually 150 min.
A number of experiments were carried out, wherein nilotinib base or nilotinib HCl represented the protein kinase inhibitor. The experiments were carried out by measuring concentration of solubilized PKI (mg/L) after 5, 30 and 90 minutes dissolution in a solution at about pH 6.5, namely FaSSIF (Fasted State Simulated Intestinal Fluid). Further, experiments were carried out in an alternative solution at about pH 5, namely FeSSIF (Fed State Simulated Intestinal Fluid). Samples of the solution were taken at various time intervals and the amount of protein kinase inhibitor was measured by the dissolution measurement assay described above.
A number of experiments were carried out, wherein erlotinib HCl represented the PKI. The experiments were carried out by measuring concentration of PKI (mg/L) after 5, 30 and 90 minutes dissolution in a solution at about pH 6.5, namely FaSSIF (Fasted State Simulated Intestinal Fluid). Further, experiments were carried out in an alternative solution at about pH 5, namely FeSSIF (Fed State Simulated Intestinal Fluid). Samples of the solution were taken at various time intervals and the amount of PKI was measured by the dissolution measurement assay described above.
A number of experiments were carried out, wherein pazopanib represented the PKI. The experiments were carried out by measuring concentration of PKI (mg/L) after 5, 30 and 90 minutes dissolution in a solution at about pH 6.5, namely FaSSIF (Fasted State Simulated Intestinal Fluid). Further, experiments were carried out in an alternative solution at about pH 5, namely FeSSIF (Fed State Simulated Intestinal Fluid). Samples of the solution were taken at various time intervals and the amount of PKI was measured by the dissolution measurement assay described above.
A number of experiments were carried out, wherein lapatinib base or lapatinib ditosylate salt represented the PKI. The experiments were carried out by measuring concentration of PKI (mg/L) after 5, 30 and 90 minutes dissolution in a solution at about pH 6.5, namely FaSSIF (Fasted State Simulated Intestinal Fluid). Samples of the solution were taken at various time intervals and the amount of PKI was measured by the dissolution measurement assay described above.
A number of experiments were carried out, wherein gefitinib represented the PKI. The experiments were carried out by measuring concentration of PKI (mg/L) after 3, 40 and 80 minutes dissolution in a solution at about pH 6.5, namely FaSSIF (Fasted State Simulated Intestinal Fluid). Samples of the solution were taken at various time intervals and the amount of PKI was measured by the dissolution measurement assay described above.
A number of experiments were carried out, wherein dasatinib represented the PKI. The experiments were carried out by measuring concentration of PKI (mg/L) after 3, 40 and 80 minutes dissolution in a solution at about pH 6.5, namely FaSSIF (Fasted State Simulated Intestinal Fluid). Samples of the solution were taken at various time intervals and the amount of PKI was measured by the dissolution measurement assay described above.

Where [3] appears, read: nilotinib HCl, FaSSIF solution (pH 6.5), after 30 minutes dissolution, HCl.

Where a name gives a salt, the structure may show the parent alone.

Regarding `COc1cc2ncnc(Nc3ccc(F)c(Cl)c3)c2cc1OCCCN1CCOCC1` [Exp 540, gefitinib], in data set [1], the “Initial Dissolution Rate” value is listed as 2.2.

As for `CNC(=O)c1ccccc1Sc1ccc2c(/C=C/c3ccccn3)n[nH]c2c1` [Exp 157, axitinib], in data set [2] (pH 6.5), the “Conc (mg/L) 3 min” value was found to be 0.6 mg/L and the “Conc (mg/L) 80 min” value was 0.6 mg/L. Also, the “Conc (mg/L) 40 min” value in data set [2] (40 min, pH 6.5) turned out to be 0.6 mg/L. Moreover, the “AUC/ 80 min. Mg/min/L” value in data set [2] (axitinib) is reported as 4.7 Mg/min/L. The “% solubilized 40 min.” value in data set [2] (axitinib, after 40 minutes dissolution in FaSSIF solution (pH 6.5)) turned out to be 0.1%.

Regarding `CNC(=O)c1cc(Oc2ccc(NC(=O)Nc3ccc(Cl)c(C(F)(F)F)c3)cc2)ccn1` [Exp 560, sorafenib tosylate], the “Initial Dissolution Rate” value in data set [1] turned out to be 0.47.

For the compound `Cc1cn(-c2cc(NC(=O)c3ccc(C)c(Nc4nccc(-c5cccnc5)n4)c3)cc(C(F)(F)F)c2)cn1` [Exp 4, Nilotinib Base], the “% solubilized 30 min.” value in data set [2] (nilotinib HCl, FaSSIF solution (pH 6.5), after 30 minutes dissolution) is given as 0.50%.

Turning to `Cc1cn(-c2cc(NC(=O)c3ccc(C)c(Nc4nccc(-c5cccnc5)n4)c3)cc(C(F)(F)F)c2)cn1` [Exp 2, Nilotinib HCl], the “% solubilized 30 min.” value in data set [2] (setting [3]) was 0.04%.

Regarding `CCCS(=O)(=O)Nc1ccc(F)c(C(=O)c2c[nH]c3ncc(-c4ccc(Cl)cc4)cc23)c1F` [Exp 164, vemurafenib], in data set [2] (pH 6.5), the “Conc (mg/L) 3 min” value amounted to 0.3 mg/L and the “Conc (mg/L) 80 min” value is listed as 0.4 mg/L. In addition, in data set [2] (40 min, pH 6.5), the “% solubilized 40 min.” value was determined as 0.1% and the “Conc (mg/L) 40 min” value worked out at 0.3 mg/L.

For the compound `Cc1cn(-c2cc(NC(=O)c3ccc(C)c(Nc4nccc(-c5cccnc5)n4)c3)cc(C(F)(F)F)c2)cn1` [Exp 3, Nilotinib HCl], the “% solubilized 30 min.” value in data set [2] (setting [3]) is 0.03%.

Regarding `Cc1cn(-c2cc(NC(=O)c3ccc(C)c(Nc4nccc(-c5cccnc5)n4)c3)cc(C(F)(F)F)c2)cn1` [Exp 1, Nilotinib HCl], the “% solubilized 30 min.” value in data set [2] (setting [3]) is 0.20%. Further, the “AUC/ 90 min. Mg/min/L” value in data set [2] (nilotinib, FaSSIF solution (pH 6.5), Area Under the Curve during 90 minutes dissolution, HCl) is listed as 13.0 Mg/min/L.

`Cc1nc(Nc2ncc(C(=O)Nc3c(C)cccc3Cl)s2)cc(N2CCN(CCO)CC2)n1` [Exp 138, dasatinib]: the “AUC/ 80 min. Mg/min/L” value in data set [2] (dasatinib) is reported as 2396 Mg/min/L. In addition, the “% solubilized 40 min.” value in data set [2] (dasatinib, after 40 minutes dissolution in FaSSIF solution (pH 6.5)) was 6.0%.

As for `C#Cc1cccc(Nc2ncnc3cc(OCCOC)c(OCCOC)cc23)c1` [Exp 58, erlotinib HCl], the “Conc (mg/L) 90 min” value in data set [2] (90 min, pH 6.5) is 4.6 mg/L. The “% solubilized 30 min.” value in data set [2] (erlotinib HCl, FaSSIF solution (pH 6.5), 30 min dissolution) was found to be 0.6%. Besides, the “AUC/ 90 min.” value in data set [2] (erlotinib HCl, FaSSIF solution (pH 6.5), AUC during 90 min dissolution) was found to be 837 Mg/min/L.

For the compound `Cc1ccc(Nc2nccc(N(C)c3ccc4c(C)n(C)nc4c3)n2)cc1S(N)(=O)=O` [Exp 84, pazopanib], in data set [2] (30 min, pH 6.5), the “% solubilized 30 min.” value turned out to be 2.4%. Also, in data set [2] (90 min, pH 6.5), the “Conc (mg/L) 90 min” value is given as 15.0 mg/L.

For `CNC(=O)c1cc(Oc2ccc(NC(=O)Nc3ccc(Cl)c(C(F)(F)F)c3)cc2)ccn1` [Exp 142, sorafenib tosylate], the “Conc (mg/L) 40 min” value in data set [2] (40 min, pH 6.5) is reported as 343.51 mg/L.

Take `CS(=O)(=O)CCNCc1ccc(-c2ccc3ncnc(Nc4ccc(OCc5cccc(F)c5)c(Cl)c4)c3c2)o1` [Exp 110, lapatinib base]: the “Conc (mg/L) 5 min” value in data set [2] (lapatinib, 5 minutes dissolution in FaSSIF solution (pH 6.5)) was determined as 2.9 mg/L. Further, the “Conc (mg/L) 30 min” value in data set [2] (lapatinib, 30 minutes dissolution in FaSSIF solution (pH 6.5)) was 6.0 mg/L. The “Conc (mg/L) 90 min” value in data set [2] (lapatinib, 90 minutes dissolution in FaSSIF solution (pH 6.5)) came to 6.5 mg/L. Also, the “AUC/ 90 min. Mg/min/L” value in data set [2] (lapatinib, Area Under the Curve during 90 minutes dissolution in FaSSIF solution (pH 6.5)) was 494 Mg/min/L. The “% solubilized 30 min.” value in data set [2] (lapatinib, after 30 minutes dissolution in FaSSIF solution (pH 6.5)) was determined as 0.3%.

With `COc1cc2ncnc(Nc3ccc(F)c(Cl)c3)c2cc1OCCCN1CCOCC1` [Exp 131, gefitinib], in data set [2] (gefitinib), the “AUC/ 80 min. Mg/min/L” value is recorded as 5967 Mg/min/L.
